Reference: US20070072897A1, “Phenylaminopropanol derivatives and methods of their use” (Wyeth, priority 2005, published 2007)
Structures can show the parent of a compound that is named as a salt.

What was measured:
human hNET = target: T1, human hNET (Homo sapiens, UniProt P23975); assay: Norepinephrine (NE) uptake assay in MDCK-Net6 cells; assay type: cell-based; conditions: [3H]NE uptake; for EC50: MDCK-Net6 cells stably transfected with hNET; for inhibition at 1 µM: MDCK-Net6 cells, read-out: hNET Percentage inhibition at 1 μM
T1 construct: expressed in transfected cells; host or cells: MDCK (MDCK-Net6)
T1 sequence (P23975 whole entry): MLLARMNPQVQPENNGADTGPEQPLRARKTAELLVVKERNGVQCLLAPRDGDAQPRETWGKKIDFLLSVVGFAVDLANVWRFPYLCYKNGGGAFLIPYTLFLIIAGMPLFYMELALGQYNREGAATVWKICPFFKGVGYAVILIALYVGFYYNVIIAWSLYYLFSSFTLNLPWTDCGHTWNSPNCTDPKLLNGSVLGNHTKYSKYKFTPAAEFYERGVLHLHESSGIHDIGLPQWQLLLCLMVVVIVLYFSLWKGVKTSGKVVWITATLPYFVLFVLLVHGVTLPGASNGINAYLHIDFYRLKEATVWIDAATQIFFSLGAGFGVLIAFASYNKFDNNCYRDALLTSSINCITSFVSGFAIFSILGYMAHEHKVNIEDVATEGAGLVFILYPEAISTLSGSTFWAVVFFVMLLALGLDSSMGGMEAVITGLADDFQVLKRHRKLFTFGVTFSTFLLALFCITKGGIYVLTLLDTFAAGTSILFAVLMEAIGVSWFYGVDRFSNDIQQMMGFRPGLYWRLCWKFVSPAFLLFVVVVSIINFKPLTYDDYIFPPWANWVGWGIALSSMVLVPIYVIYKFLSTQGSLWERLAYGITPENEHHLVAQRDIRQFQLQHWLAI

human 5-HT2A receptor = target: T2, human 5-HT2A receptor (Homo sapiens, UniProt P28223); assay: 5-HT2A FLIPR assay (calcium response to DOI) in CHO cells; assay type: cell-based; conditions: for IC50: antagonist inhibition of 3 nM DOI stimulation, CHO cells, FLIPR; for inhibition at 1 µM: CHO, read-out: 5-HT2A Percentage inhibition at 1 μM
T2 construct: expressed in transfected cells; host or cells: CHO
T2 sequence (P28223 whole entry): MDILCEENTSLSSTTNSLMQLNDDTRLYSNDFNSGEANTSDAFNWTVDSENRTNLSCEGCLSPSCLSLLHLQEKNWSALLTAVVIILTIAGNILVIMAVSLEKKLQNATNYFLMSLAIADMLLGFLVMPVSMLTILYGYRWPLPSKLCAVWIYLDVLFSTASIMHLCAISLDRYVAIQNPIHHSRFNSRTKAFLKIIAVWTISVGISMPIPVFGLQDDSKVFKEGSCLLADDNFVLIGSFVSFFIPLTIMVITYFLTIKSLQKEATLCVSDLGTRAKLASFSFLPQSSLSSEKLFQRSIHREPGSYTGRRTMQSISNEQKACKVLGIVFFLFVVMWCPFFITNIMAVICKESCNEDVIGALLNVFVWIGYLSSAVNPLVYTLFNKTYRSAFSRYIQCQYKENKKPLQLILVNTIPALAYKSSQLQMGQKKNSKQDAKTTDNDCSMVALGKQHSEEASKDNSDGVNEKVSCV
Protocol: Cells are washed with PBS without Ca^2+ and 3 mL Trypsin is added to dissociate cells. After 3 minute incubation, 7 mL Trypsin Neutralizing Solution is added. Cells are then aspirated from flask and mixed in a 50 mL conical tube. 10 μL sample is used to count cells on a hemacytometer. […] Two 96-well drug plates are prepared for each cell plate. Plate 1 will contain compounds to be tested and plate 2 will contain the agonist DOI (3 nM) to activate a calcium response. Specific details of compound preparation are listed below. […] Outside wells are not used due to an edge effect seen in these cells. The reference compounds DOI and 5-HT are used as standard 5HT agonists. […] Standards for plate one are Vehicle, 1 μM DOI, and 3 nM MDL. […] On the day of the assay, test compound solutions of appropriate concentrations are diluted in assay buffer as described for single concentration testing. This procedure is followed to ensure that the solvent concentration is consistent across dilutions. The typical concentration testing range of compounds is 10^−10—10^−5 M in half log or full log increments. A 10 μM DOI stock is diluted to 60 nM and added to the respective wells. The pipeting station of the FLIPR will make an additional 20-fold dilution for a final concentration of 3 nM. Standards for this plate include Vehicle and 3 nM DOI. Contents of dye vial (Molecular Devices #R8090) are dissolved in 100 mL of 1×HBSS supplemented with 20 mM HEPES. Aliquots can be frozen at −20° C. for up to one week for future use. On the day of assay, dye is thawed and diluted to half concentration. […] Cells are allowed to adhere for 24 hours in 96-well plates. […] Cell, compound and DOI plates are loaded into the FLIPR machine. The baseline fluorescence level is read once every second for 1 minute. Compound (10 μL) is transferred from the compound plate to the cells and the fluorescence level recorded every 6 seconds for 2 minutes to determine any agonist activity. Baseline fluorescence is recorded again every second for 10 seconds. For antagonist determination, 10 μL of 3 nM DOI is transferred from the DOI plate to the cells and the fluorescence level recorded every 6 seconds for 5 minutes. The pipetting unit of the FLIPR machine completes all transfers. […] The data are log transformed prior to analysis.

IC50 (human 5-HT2A receptor)	Compound	EC50 (human hNET)	inhibition at 1 µM (human 5-HT2A receptor)	inhibition at 1 µM (human hNET)
0.203 µM	CNC[C@@H](O)[C@H](c1ccccc1)N1C(=O)C2(CCCCC2)c2cccc(Cl)c21 [Example 31, 7′-Chloro-1′-[(1S,2R)-2-hydroxy-3-(methylamino)-1-phenylpropyl]spiro[cyclohexane-1,3′-indol]-2′(1′H)-one hydrochloride]	0.032 µM	–	–
–	CNC[C@@H](O)[C@H](c1cccc(F)c1)N1C(=O)C2(CCCCC2)c2ccc(F)cc21 [Example 32, 6′-fluoro-1′-[(1S,2R)-1-(3-fluorophenyl)-2-hydroxy-3-(methylamino)propyl]spiro[cyclohexane-1,3′-indol]-2′(1′H)-one hydrochloride]	0.043 µM	95%	–
–	CNC[C@@H](O)[C@H](c1ccccc1)N1CC2(CCCCC2)c2ccccc21 [Example 33, (1S,2R)-3-(methylamino)-1-phenyl-1-spiro[cyclohexane-1,3′-indol]-1′(2′H)-ylpropan-2-ol hydrochloride]	0.029 µM	13%	–
–	CNC[C@@H](O)[C@H](c1ccccc1)n1ccc2cc(NC(=O)c3ccc(C)c(Cl)c3)ccc21 [Example 71, 3-chloro-N-{1-[(1S,2R)-2-hydroxy-3-(methylamino)-1-phenylpropyl]-1H-indol-5-yl}-4-methylbenzamide hydrochloride]	0.092 µM	44%	–
–	CNC[C@@H](O)[C@H](c1ccccc1)N1CCc2cc(NC(=O)c3cccc(Cl)c3)ccc21 [Example 72, 3-Chloro-N-{1-[(1S,2R)-2-hydroxy-3-(methylamino)-1-phenylpropyl]-2,3-dihydro-1H-indol-5-yl}benzamide hydrochloride]	0.095 µM	60%	–
0.625 µM	CNC[C@@H](O)[C@H](c1ccccc1)n1ccc2cc(NC(=O)c3cccc(Cl)c3)ccc21 [Example 73, 3-Chloro-N-{1-[(1S,2R)-2-hydroxy-3-(methylamino)-1-phenylpropyl]-1H-indol-5-yl}benzamide hydrochloride]	0.091 µM	–	–
–	CNC[C@@H](O)[C@H](c1ccccc1)N1CCc2cc(NC(=O)c3ccccc3)ccc21 [Example 74, N-{1-[(1S,2R)-2-Hydroxy-3-(methylamino)-1-phenylpropyl]-2,3-dihydro-1H-indol-5-yl}benzamide hydrochloride]	0.365 µM	24%	–
–	CNC[C@@H](O)[C@H](c1ccccc1)n1ccc2cc(NC(=O)c3ccccc3)ccc21 [Example 75, N-{1-[(1S,2R)-2-Hydroxy-3-(methylamino)-1-phenylpropyl]-1H-indol-5-yl}benzamide hydrochloride]	0.299 µM	34%	–
–	CNC[C@@H](O)[C@H](c1ccccc1)N1CCc2cc(NC(=O)C3CCCCC3)ccc21 [Example 76, N-{1-[(1S,2R)-2-Hydroxy-3-(methylamino)-1-phenylpropyl]-2,3-dihydro-1H-indol-5-yl}cyclohexanecarboxamide hydrochloride]	–	45%	54%
–	CNC[C@@H](O)[C@H](c1ccccc1)n1ccc2cc(NC(=O)C3CCCCC3)ccc21 [Example 77, N-{1-[(1S,2R)-2-Hydroxy-3-(methylamino)-1-phenylpropyl]-1H-indol-5-yl}cyclohexanecarboxamide hydrochloride]	–	51%	60%
0.691 µM	CNC[C@@H](O)[C@H](c1ccccc1)N1CCc2cc(C(=O)Nc3cccc(Cl)c3)ccc21 [Example 78, N-(3-Chlorophenyl)-1-[(1S,2R)-2-hydroxy-3-(methylamino)-1-phenylpropyl]indoline-5-carboxamide hydrochloride]	0.362 µM	–	–
0.084 µM	CNC[C@@H](O)[C@H](c1ccccc1)n1ccc2cc(C(=O)Nc3cccc(Cl)c3)ccc21 [Example 79, N-(3-Chlorophenyl)-1-[(1S,2R)-2-hydroxy-3-(methylamino)-1-phenylpropyl]-1H-indole-5-carboxamide hydrochloride]	0.328 µM	–	–
–	CNC[C@@H](O)[C@H](c1ccccc1)n1ccc2ccc(Oc3ccccc3)cc21 [Example 80, (1S,2R)-3-(methylamino)-1-(6-phenoxy-1H-indol-1-yl)-1-phenylpropan-2-ol hydrochloride]	–	32%	12%
0.372 µM	CNC[C@@H](O)[C@H](c1ccccc1)n1ccc2cccc(Oc3ccccc3)c21 [Example 81, (1S,2R)-3-(methylamino)-1-(7-phenoxy-1H-indol-1-yl)-1-phenylpropan-2-ol hydrochloride]	1.02 µM	–	–
0.796 µM	NC[C@@H](O)[C@H](c1ccccc1)n1ccc2cc(OCc3ccccc3)ccc21 [Example 82, (1S,2R)-3-amino-1-[5-(benzyloxy)-1H-indol-1H-yl]-1-phenylpropan-2-ol hydrochloride]	0.279 µM	–	–
0.38 µM	CCNC[C@@H](O)[C@H](c1ccccc1)n1ccc2cc(OCc3ccccc3)ccc21 [Example 83, (1S,2R)-1-[5-(benzyloxy)-1H-indol-1-yl]-3-(ethylamino)-1-phenylpropan-2-ol hydrochloride]	–	–	43%
–	CCCNC[C@@H](O)[C@H](c1ccccc1)n1ccc2cc(OCc3ccccc3)ccc21 [Example 84, (1S,2R)-1-[5-(benzyloxy)-1H-indol-1-yl]-1-phenyl-3-(propylamino)propan-2-ol hydrochloride]	–	50%	11%
–	CC(C)NC[C@@H](O)[C@H](c1ccccc1)n1ccc2cc(OCc3ccccc3)ccc21 [Example 85, (1S,2R)-1-[5-(benzyloxy)-1H-indol-1-yl]-3-(isopropylamino)-1-phenylpropan-2-ol hydrochloride]	–	32%	4%
0.263 µM	CN(C)C[C@@H](O)[C@H](c1ccccc1)n1ccc2cc(OCc3ccccc3)ccc21 [Example 86, (1S,2R)-1-[5-(benzyloxy)-1H-indol-1-yl]-3-(dimethylamino)-1-phenylpropan-2-ol hydrochloride]	–	–	22%
1.12 µM	CCN(C)C[C@@H](O)[C@H](c1ccccc1)n1ccc2cc(OCc3ccccc3)ccc21 [Example 87, (1S,2R)-1-[5-(benzyloxy)-1H-indol-1-yl]-3-[ethyl(methyl)amino]-1-phenylpropan-2-ol hydrochloride]	–	–	16%
–	CCN(CC)C[C@@H](O)[C@H](c1ccccc1)n1ccc2cc(OCc3ccccc3)ccc21 [Example 88, (1S,2R)-1-[5-(benzyloxy)-1H-indol-1-yl]-3-(diethylamino)-1-phenylpropan-2-ol hydrochloride]	–	33%	21%
–	O[C@H](CN1CCCC1)[C@H](c1ccccc1)n1ccc2cc(OCc3ccccc3)ccc21 [Example 89, (1S,2R)-1-[5-(benzyloxy)-1H-indol-1-yl]-1-phenyl-3-pyrrolidin-1-ylpropan-2-ol hydrochloride]	–	32%	14%
–	O[C@H](CN1CCCCC1)[C@H](c1ccccc1)n1ccc2cc(OCc3ccccc3)ccc21 [Example 90, (1S,2R)-1-[5-(benzyloxy)-1H-indol-1-yl]-1-phenyl-3-piperidin-1-ylpropan-2-ol hydrochloride]	–	25%	12%
